Source: US4794169A, “Pentapeptides with cell growth regulatory effects and a process for the preparation thereof” (Bio-Tech A/S, priority 1985, dated 1988)
Square brackets hold non-standard residues; d marks the D form. Peptide text beside a SMILES is read from it. pGlu = O=C1CC[C@@H](C(=O)O)N1

Tested on: mouse epidermal mitotic rate
Test: Change in mouse epidermal mitotic rate after intraperitoneal injection (Colcemid method)
Type: in vivo
Conditions: mouse epidermis, first three hours after i.p. injection, vs control animals from same cage
Procedure: In the following Table 1 in vivo results (change in mouse epidermal mitotic rate) have been described as example for four different new pentapeptides. The epidermal mitotic rate was measured for the first three hours after intraperitoneal injection of the new pentapeptides. Mitotic rate was determined by means of "Colcemid" (Demecolcine). A reduced rate was determined as a percentage in comparison with control animals from the same cage.

C[C@H](NC(=O)[C@H](CC(=O)O)NC(=O)[C@H](CCC(=O)O)NC(=O)[C@@H]1CCC(=O)N1)C(=O)NCC(=O)O [Compound 3, pGlu--Glu--Asp--Ala--Gly] ([pGlu]EDAG-OH)
Decrease in mitotic rate % (10^-13 moles of peptide injected per mouse): 36%

NC(=O)CC[C@H](NC(=O)[C@@H]1CCC(=O)N1)C(=O)N[C@@H](CC(=O)O)C(=O)N[C@@H](CO)C(=O)NCC(=O)O [Compound 2, pGlu--Gln--Asp--Ser--Gly] ([pGlu]QDSG-OH)
Decrease in mitotic rate % (10^-11 moles of peptide injected per mouse): 39%

O=C(O)CC[C@H](NC(=O)[C@@H]1CCC(=O)N1)C(=O)N[C@@H](CC(=O)O)C(=O)N[C@@H](CO)C(=O)NCC(=O)O [Compound 1, pGlu--Glu--Asp--Ser--Gly] ([pGlu]EDSG-OH)
Decrease in mitotic rate % (10^-11 -10^-14 moles of peptide injected per mouse): 40-44%
